In patent US12281121B2, “N-containing heteroaryl derivative and pharmaceutical composition comprising same as active ingredient for prevention or treatment of cancer” (VORONOI Inc., priority 2019, dated 2025):
Each block holds one molecule with its values, some of them ahead of it.

Tests used:
[1] = tested on: Ba/F3 KIF5B-RET (V804M) cells; assay: Cell proliferation inhibition, CellTiter-Glo; format: cell-based; settings: Mus musculus, BaF3, 72 hours
Protocol: (§1) Among lung cancer cell lines, which express RET fusion genes, LC-2/ad cells were cultured after adding 10% FBS (HyClone) to RPMI:F12 (1:1) (Invitrogen), and F-12 (Invitrogen) supplemented with 10% FBS was used for TT cells. RPMI-1640 supplemented with 10% FBS and 5 ng/ml IL-3 (R&D Systems) was used for Ba/F3 cells. Transduced Ba/F3 cells were cultured by adding 1 ug/ml puromycin (Invitrogen) to the same medium. 24 hours before cells were treated with the compound, 3000 to 5000 cells were aliquoted into each well of a white clear bottom 96 well plate (Corning). The compound was diluted in DMSO (3-fold dilution, a total of 12 concentrations) and the compound was injected by 0.5 μl such that the final concentration was 0.3 nM to 50 μM. For the measurement of living cells, 72 hours after the compound treatment, the cells were stored at room temperature for 10 minutes using a CellTiter-Glo luminescent cell-viability agent (Promega), and then the luminescence intensity was measured using a reader (SynergyNeo, Biotek). Each experiment was repeated in triplicate. The result value was calculated by the cell growth ratio (%) compared to the control. A graph was drawn using the GraphPad Prism version 5.0 program, and a GI50 (nM) value was calculated.
(§2) In the cell assay column, LC-2/ad (with CCDC6-RET gene) is a lung cancer cell line, a TT cell line ([…]) is a thyroid cancer cell line, Ba/F3 CCDC6-RET (WT), Ba/F3 KIF5B-RET (WT), and Ba/F3 KIF5B-RET (V804M) are cells in which disease-related traits (CCDC6-RET, KIF5B-RET, and KIF5B-RET (V804M)) are introduced into Ba/F3 cells, and Ba/F3 (naive) is a cell which is not transduced.

[2] = tested on: Ba/F3 KIF5B-RET (WT) cells; assay: Cell proliferation inhibition, CellTiter-Glo; format: cell-based; settings: Mus musculus, BaF3, 72 hours
Protocol: as §1, §2

[3] = tested on: Ba/F3 CCDC6-RET (WT) cells; assay: Cell proliferation inhibition, CellTiter-Glo; format: cell-based; settings: BaF3/CCDC6-RET, 72 hours
Protocol: as §1, §2

Ba/F3 (naive) cells = assay: Cell proliferation inhibition, CellTiter-Glo; format: cell-based; settings: Mus musculus, BaF3; Ba/F3 not transduced, 72 hours
Protocol: as §1, §2

RET (WT) = target: T1, RET (WT) (Homo sapiens, UniProt P07949); assay: RET enzyme inhibitory ability, ADP-Glo kinase assay; format: biochemical; settings: ATP 10 μM, 25° C., 1 hour
T1 construct: human RET (658-end, SIGNALCHEM); purchased SIGNALCHEM
T1 sequence (P07949 658-1114 limits assumed): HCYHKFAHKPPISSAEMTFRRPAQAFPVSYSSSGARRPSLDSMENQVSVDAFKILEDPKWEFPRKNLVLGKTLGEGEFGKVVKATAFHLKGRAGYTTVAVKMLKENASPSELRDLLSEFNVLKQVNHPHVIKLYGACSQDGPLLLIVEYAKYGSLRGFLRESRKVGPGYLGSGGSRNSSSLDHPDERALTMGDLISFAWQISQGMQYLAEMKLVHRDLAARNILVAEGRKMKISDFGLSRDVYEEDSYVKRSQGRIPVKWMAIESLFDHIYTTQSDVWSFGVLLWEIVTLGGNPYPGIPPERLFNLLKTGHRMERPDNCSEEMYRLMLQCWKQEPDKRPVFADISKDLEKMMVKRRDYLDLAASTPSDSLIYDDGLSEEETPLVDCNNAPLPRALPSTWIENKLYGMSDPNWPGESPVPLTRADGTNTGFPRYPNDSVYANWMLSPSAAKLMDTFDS
Protocol: The Example compound was reacted with a purified human RET (658-end, SIGNALCHEM) enzyme to evaluate the enzyme inhibitory ability by the following method. As a reaction buffer, a composition of 40 mM Tris-HCl pH 7.4, 20 mM MgCl2, 0.5 mg/mL BSA, and 50 μM DTT was used, and all experimental materials were reacted on the reaction buffer. After the human RET (658-end, 0.8 ng) enzyme was reacted with purified ATP (10 μM) and a specific substrate solution at 25° C. for 1 hour during the experiment, the enzyme activity was confirmed using in vitro ADP-Glo™ kinase assay (Promega). Luminescence was measured by reacting the enzyme activity reaction solution, the ADP-Glo reaction solution, and the enzyme activity detection solution at a ratio of 2:2:1. The degree of inhibition of enzyme activity according to the treatment concentration of each compound was calculated based on the […] of the enzyme activity of a solvent control group in which a compound was not treated, and in this case, the concentration of each compound which suppresses the […] enzyme activity by 50% was determined as an IC50 (nM) value. The IC50 (nM) of each compound was determined by 3 datasets and obtained using Prism (version 7.01, GraphPad) software.
In the enzyme assay column, RET (WT) is a non-mutated form, RET (V804M) is a mutated form in which the V amino acid at position 804 of the RET is substituted with M, and CCDC6-RET is a form in which the RET (WT) gene and CCDC6 gene are fused.

GI50 [1]: 328 nM
SMILES: COc1ccc(CN2C(C)CN(c3ccc(-c4nc(Nc5cc(C)[nH]n5)c5ccccc5n4)cn3)C[C@H]2C)cn1 (stereo in doubt) [Example 35, 2-(6-((3R,5S)-4-((6-methoxy-pyridin-3-yl)methyl)-3,5-dimethyl-piperazin-1-yl)pyridin-3-yl)-N-(5-methyl-1H-pyrazol-3-yl)quinazolin-4-amine]

SMILES: Cc1cc(Nc2nc(-c3ccc(N4CC5CC(C4)N5Cc4ncc(C)s4)nc3)nc3ccccc23)n[nH]1 [Example 5, N-(5-methyl-1H-pyrazol-3-yl)-2-(6-(6-((5-methylthiazol-2-yl)methyl)-3,6-diazabicyclo [3.1.1]heptan-3-yl)pyridin-3-yl)quinazolin-4-amine]
GI50 [2]: 7 nM | GI50 [1]: 4 nM | GI50 [3]: 41 nM | GI50 (Ba/F3 (naive) cells): 1060 nM | IC50 (RET (WT)): 18 nM

SMILES: COc1ccc(CN2CC3CC(C2)N3c2ccc(-c3nc(Nc4cc(C)[nH]n4)c4ccccc4n3)cn2)cn1 [Example 6, 2-(6-(3-((6-methoxypyridin-3-yl)methyl)-3,6-diazabicyclo [3.1.1]heptan-6-yl)pyridin-3-yl)-N-(5-methyl-1H-pyrazol-3-yl)quinazolin-4-amine]
GI50 [2]: 67 nM | GI50 [1]: 70 nM | GI50 [3]: 166 nM | GI50 (Ba/F3 (naive) cells): 9220 nM | IC50 (RET (WT)): 27 nM

SMILES: Cc1cc(Nc2nc(-c3ccc(N4CC5CC(C4)N5Cc4ccc(C(F)(F)F)nc4)nc3)nc3ccccc23)n[nH]1 [Example 8, N-(5-methyl-1H-pyrazol-3-yl)-2-(6-(6-((6-(tri-fluoromethyl)py-ridin-3-yl)meth-yl)-3,6-diaza-bicyclo[3.1.1]heptan-3-yl)pyridin-3-yl)quinazolin-4-amine]
GI50 [2]: 12 nM | GI50 [1]: 23 nM | GI50 [3]: 51 nM | GI50 (Ba/F3 (naive) cells): 1980 nM | IC50 (RET (WT)): 32 nM

SMILES: Cc1cc(Nc2nc(-c3ccc(N4CC5CC(C4)N5Cc4ccc(C#N)nc4)nc3)nc3ccccc23)n[nH]1 [Example 9, 5-((3-(5-(4-((5-methyl-1H-py-razol-3-yl)amino)quinazolin-2-yl)pyridin-2-yl)-3,6-diazabicyclo [3.1.1]heptan-6-yl)methyl)pico-linonitrile]
GI50 [2]: 23 nM | GI50 [1]: 23 nM | GI50 [3]: 62 nM | GI50 (Ba/F3 (naive) cells): 822 nM | IC50 (RET (WT)): 30 nM

SMILES: Cc1ccc(CN2C3CC2CN(c2ccc(-c4nc(Nc5cc(C)[nH]n5)c5ccccc5n4)cn2)C3)cn1 [Example 10]
GI50 [2]: 9 nM | GI50 [1]: 10 nM | GI50 [3]: 39 nM | GI50 (Ba/F3 (naive) cells): 920 nM | IC50 (RET (WT)): 10 nM

SMILES: Cc1cc(Nc2nc(-c3ccc(N4CC5CC(C4)N5Cc4cc(F)c(OC(C)C)c(F)c4)nc3)nc3ccccc23)n[nH]1 [Example 11, 2-(6-(6-(3,5-difluoro-4-isopropoxy-benzyl)-3,6-diazabicyclo [3.1.1]heptan-3-yl)pyridin-3-yl)-N-(5-methyl-1H-pyrazol-3-yl)quinazolin-4-amine]
GI50 [1]: 119 nM

SMILES: COc1ccc(CN2C3CC2CN(c2ccc(-c4nc(Nc5cc(C)[nH]n5)c5ccccc5n4)cn2)C3)cc1C#N [Example 12, 2-methoxy-5-((3-(5-(4-((5-methyl-1H-pyrazol-3-yl)amino)quina-zolin-2-yl)pyridin-2-yl)-3,6-diazabicyclo [3.1.1]heptan-6-yl)methyl)benzo-nitrile]
GI50 [2]: 15 nM | GI50 [1]: 49 nM | GI50 [3]: 52 nM | GI50 (Ba/F3 (naive) cells): 2540 nM | IC50 (RET (WT)): 38 nM

SMILES: Cc1cc(Nc2nc(-c3ccc(N4CC5CC(C4)N5Cc4cnc[nH]4)nc3)nc3ccccc23)n[nH]1 [Example 13, 2-(6-(6-((1H-imidazol-5-yl)methyl)-3,6-diazabicyclo [3.1.1]heptan-3-yl)pyridin-3-yl)-N-(5-methyl-1H-pyrazol-3-yl)quinazolin-4-amine]
GI50 [1]: 2450 nM

SMILES: COc1ccc(CN2C3CC2CN(c2ccc(-c4nc(Nc5cc(C)[nH]n5)c5ccccc5n4)cn2)C3)cc1 [Example 14, 2-(6-(6-(4-methoxybenzyl)-3,6-diaza-bicyclo[3.1.1]heptan-3-yl)pyridin-3-yl)-N-(5-methyl-1H-pyrazol-3-yl)quinazolin-4-amine]
GI50 [2]: 11 nM | GI50 [1]: 22 nM | GI50 [3]: 33 nM | GI50 (Ba/F3 (naive) cells): 2700 nM | IC50 (RET (WT)): 10 nM

SMILES: Cc1cc(Nc2nc(-c3ccc(N4CC5CC(C4)N5Cc4ccc(OC(C)C)nc4)nc3)nc3ccccc23)n[nH]1 [Example 15, 2-(6-(6-((6-iso-propoxypyridin-3-yl)methyl)-3,6-diazabicyclo [3.1.1]heptan-3-yl)pyridin-3-yl)-N-(5-methyl-1H-pyrazol-3-yl)quinazolin-4-amine]
GI50 [2]: 24 nM | GI50 [1]: 30 nM | GI50 [3]: 75 nM | GI50 (Ba/F3 (naive) cells): 3100 nM | IC50 (RET (WT)): 40 nM

SMILES: COc1ncc(CN2C3CC2CN(c2ccc(-c4nc(Nc5cc(C)[nH]n5)c5ccccc5n4)cn2)C3)cc1Cl [Example 16, 2-(6-(6-((5-chloro-6-methoxypyridin-3-yl)methyl)-3,6-diazabicyclo [3.1.1]heptan-3-yl)pyridin-3-yl)-N-(5-methyl-1H-pyrazol-3-yl)quinazolin-4-amine]
GI50 [2]: 42 nM | GI50 [1]: 39 nM | GI50 [3]: 127 nM | GI50 (Ba/F3 (naive) cells): 4010 nM | IC50 (RET (WT)): 60 nM

SMILES: Cc1cc(Nc2nc(-c3ccc(N4CC5CC(C4)N5Cc4ccc(NS(C)(=O)=O)cc4)nc3)nc3ccccc23)n[nH]1 [Example 21, N-(4-((3-(5-(4-((5-methyl-1H-pyrazol-3-yl)a-mino)quinazolin-2-yl)pyridin-2-yl)-3,6-diazabicyclo [3.1.1]heptan-6-yl)methyl)phenyl) methane-sulfonamide]
GI50 [1]: 117 nM

SMILES: Cc1cc(Nc2nc(-c3ccc(N4CC5CC(C4)N5Cc4ccn(C)c(=O)c4)nc3)nc3ccccc23)n[nH]1 [Example 27, 1-methyl-4-((3-(5-(4-((5-methyl-1H-pyrazol-3-yl)amino)quina-zolin-2-yl)pyridin-2-yl)-3,6-diazabicyclo [3.1.1]heptan-6-yl)methyl)pyri-din-2(1H)-one]
GI50 [1]: 159 nM

GI50 [1]: 321 nM
SMILES: COc1ccc(CN2C[C@H](C)N(c3ccc(-c4nc(Nc5cc(C)[nH]n5)c5ccccc5n4)cn3)C[C@H]2C)cn1 [Example 28, 2-(6-((2S,5R)-4-((6-methoxy-pyridin-3-yl)methyl)-2,5-di-methylpiperazin-1-yl)pyridin-3-yl)-N-(5-methyl-1H-pyrazol-3-yl)quinazolin-4-amine]

GI50 [1]: 239 nM
SMILES: COc1ccc(CN2C[C@@H](C)N(c3ccc(-c4nc(Nc5cc(C)[nH]n5)c5ccccc5n4)cn3)C[C@@H]2C)cn1 [Example 32]

GI50 [1]: 121 nM
SMILES: COc1ccc(CN2CCN(c3ccc(-c4nc(Nc5cc(C)[nH]n5)c5ccccc5n4)cn3)C[C@@H]2C)cn1 [Example 33, (S)-2-(6-(4-((6-methoxypyridin-3-yl)methyl)-3-methylpiperazin-1-yl)pyridin-3-yl)-N-(5-methyl-1H-pyrazol-3-yl)quinazolin-4-amine]
